The text below walks through data of publication PMC12668304, “A Triple Threat Against Ovarian Cancer: Os(II)‐Pt(IV)‐Ceritinib Conjugates for Photodynamic Therapy, Chemotherapy, and Immunogenic Cell Death Induction” (Angewandte Chemie (International Ed. in English), 2025).

A word on the IC50: it is the point on the concentration scale where inhibition reaches its midpoint.

Each structure is given as a SMILES string. Read-outs that look alike come from different tables or passages of the source.

In one series the test system is A2780 cells. Kind of series: (Photo-)cytotoxicity on 2D cell monolayers, resazurin assay. In kind it is cell-based, human. The note with it: for IC50: A2780, normoxic, 4 h exposure. Here is the method: (§1) The 2D cytotoxicity and phototoxicity profiles of Os‐Pt‐Cer and controls, were evaluated in a panel of cancerous cell lines, including A2780 (ovarian carcinoma), A549 (non‐small cell lung carcinoma), and MCA205 (murine fibrosarcoma), as well as a non‐cancerous retinal pigment epithelial cell line (RPE‐1). Cells were treated with the compounds (0.003–100 µM) for 4 h, either kept in the dark or irradiated at 670 nm (13.5 J cm^− ^2) (Table S4 and Figure S22) or 740 nm (12.6 J cm^− ^2) and viability was assessed 44 h post‐treatment. To verify robustness, the incubation was extended to 72 h. […]
(§2) Human ovarian cancer (A2780) cells and mouse fibrosarcoma cells (MCA205) were cultured in RPMI media. Retinal pigment epithelium (RPE -1) cells were cultured in DMEM/F -12 medium. Lung cancer cells (A549) were cultured in F -12K medium. These cell lines were complemented with 10% of fetal bovine serum, 100 U/mL penicillin -streptomycin mixture, and maintained in a humidified atmosphere […]
(§3) (Photo-)cytotoxicity on 2D cell monolayers
(§4) The cytotoxicity of the compounds was assessed by measuring cell viability using a resazurin assay.
(§5) The cells were seeded in triplicates in 96 well plates with a density of 10 4 cells per well in 100 μL of media. After 24 h, the medium was removed, and the cells were treated with increasing concentrations (0.003 → 100 µM) of the compounds diluted in cell media , achieving a total volume of 100 μL/well.
(§6) The cells were incubated with the compound for 4 h (final incubation time 48 h) or 24 h (final incubation time 72 h). After this time, the media was removed and replaced with 100 μL of fresh medium. For the phototoxicity studies, the cells were exposed to light with an Atlas Photonics LUMOS BIO irradiation system. Each well was constantly irradiated at 670 nm (60 min, 13.50 J·cm-2) or 740 nm (60 min, 12.60 J·cm-2). During the irradiation, the temperature of the plate was maintained at 37 °C. The cells were grown in the incubator for an additional 44 or 48 h, respectively. For the determination of the dark cytotoxicity, the cells were not irradiated and after the medium exchange directly incubated for 44 h.
(§7) After this time, the medium was replaced with fresh medium containing resazurin (0.2 mg/mL). After […]
(§8) 4 h of incubation, the conversion of resazurin into resorufin was determined upon excitation at 540 nm and measurement of its emission at 590 nm using a Cytation 5 Imaging Reader from BioTek. The obtained data was analysed with the GraphPad Prism software […]
(§9) After 24 h of incubation at 37 °C, 5% CO 2, plates were read using a SpectraMaxM2 Microplate Reader ( λexc = 540 nm; λread = 590 nm). Fluorescence data were normalised, and data were fitted using GraphPad Prism Software, and IC 50 was calculated by non - linear regression. Changes in the size and shape of MCTS were monitored every 24 h using Cytation 5 Imaging Reader from BioTek, objective x4.
(§10) Intracellular distribution by confocal fluorescence microscopy
(§11) 10^4 cells/well (A2780 cells) were seeded in complete medium (RPMI) in µ -slide 8 well (Ibidi) (100 µl/well) and left for 24 h to attach to the bottom. Then, the culture medium was removed , and 100 µl of solution of the corresponding complexes (5 µM) was added. The complexes were incubated with the cells for 4 hours. Thereafter, the medium was removed and replaced by RPMI without phenol red , and Hoechst and MitoTracker Green were added at a final concentration of 1 µg/mL. They were incubated with the cells for 30 min in the dark at 37 °C. Images were collected in a sequential mode in a Leica TCS SP8 confocal microscope with a 60x oil immers ion objective, a line average of 4, and a format of […]
(§12) (MTG)→ 500 -550nm, and 488 nm (complexes)→ 680 -730 nm. The confocal pinhole was 1 Airy unit.
(§13) Images were analysed with LAS X Flim FCS software.
(§14) Intracellular distribution by ICP -MS
On the technique in general: The colour change of resazurin is a common sign of viable cells or microbes.

In another series the test system is RPE‐1 cells. The description is as above. The class given is cell-based. To be noted: for IC50: RPE‐1, normoxic, 4 h exposure. Here is the method: as §1, §2, §3, §4, §5, §6, §7, §8, §9, §10, §11, §12, §13, §14
Details of series [1]: method as in not given. To be noted: standard, acetonitrile; ref not given; cited from earlier work.
Another series deals with A549 cells. Kind of series: (Photo-)cytotoxicity on 2D cell monolayers, resazurin assay. The note with it: A549, normoxic, dark, 4 h exposure, total 48 h incubation; read-out: IC50 Dark. The class given is cell-based. As to the method:
as §1, §2, §3, §4, §5, §6, §7, §8, §9, §10, §11, §12, §13, §14

Another series deals with MCA205 cells. Described as above. The class given is cell-based, mouse. To be noted: MCA205, normoxic, dark, 4 h exposure, total 48 h incubation; read-out: IC50 Dark. As to the method: as §1, §2, §3, §4, §5, §6, §7, §8, §9, §10, §11, §12, §13, §14
Another series deals with A2780 MCTSs. Put plainly: (Photo-)cytotoxicity on 3D multicellular tumour spheroids, resazurin assay. The class given is cell-based, human. The note with it: normoxic, dark, one week of incubation, read-out: IC50 Dark. As to the method: A2780 spheroids (ca. 500 µm in diameter) were treated with increasing concentrations of the compounds and after 24 h of incubation, the medium was replaced with fresh medium, and the cells were either kept in the dark or irradiated for 1 h at 740 nm. Images of the spheroids were taken every 24 h for 3 days.
Additionally, the phototoxicity was tested via a fluorometric resazurin assay in A2780 MCTSs (Table 3). […] (Figure S29). […] This can be attributed to the different biological endpoints and time frames of the assays: spheroid diameter was monitored over 72 h, whereas resazurin measurements were performed after 7 days, potentially capturing delayed cytotoxic effects due to differences in drug cellular uptake.
4 h of incubation, the conversion of resazurin into resorufin was determined upon excitation at 540 nm and measurement of its emission at 590 nm using a Cytation 5 Imaging Reader from BioTek. The obtained data was analysed with the GraphPad Prism software
MCTS were cultured using ultra-low attachment 96 wells plates from Corning (Fisher Scientific 15329740). A2780 cells were seeded at a density of 1,500 cells per well in 100 μL of RPMI. Within 2-3 days, MCTSs have approximately 500 μm of diameter. The formation as well as integrity and diameter of the MCTSs were monitored by microscopy.
(Photo-)cytotoxicity on 3D multicellular tumor spheroids (MCTS)
After 2 days of growing at 37 °C in 5% CO2, the medium was removed, and MCTSs were treated by adding 100 μL of the medium in the well with increasing concentrations of compounds (Os-Pt-Cer, Os, Ceritinib, Oxaliplatin, cisplatin, and Ce6 as additional control). For untreated reference MCTSs, only half of the medium was added with fresh medium. After 24 hours, the MCTSs were divided into two identical groups. The first group was strictly kept in the dark. The second group was irradiated at 740 nm for 1 h (12.60 J·cm-2) using a LUMOS-BIO photoreactor (Atlas Photonics). After the irradiation, all groups were incubated additional 7 days. Thereafter, medium was replaced with 100 μL of fresh medium containing resazurin (0.2 mg/mL). After 24 h of incubation at 37 °C, 5% CO 2, plates were read using a SpectraMaxM2 Microplate Reader ( λexc = 540 nm; λread = 590 nm). Fluorescence data were normalised, and data were fitted using GraphPad Prism Software, and IC 50 was calculated by non - linear regression. Changes in the size and shape of MCTS were monitored every 24 h using Cytation 5 Imaging Reader from BioTek, objective x4. […]
Figure S29. Cell viability graphs after one week of incubation. Studied compounds were incubated for 24 h, thereafter the medium was renovated. For PDT, plates were irradiated at 740 nm for 1h using a LUMOS-BIO photoreactor (Atlas Photonics). For both PDT and regular cytotoxicity, cells were incubated for one week at 37 °C, 5 % CO2. The medium was renovated each two days. Then, the medium was replaced with 100 µL of fresh medium containing 0.2 mg/mL resazurin (Acros Organics). After 24 h of incubation, the fluorescence signal of the resazurin product was recorded (λexc = 540 nm; λem = 590 nm) using a Cytation 5 Cell Imaging Multi-Mode Reader (Biotek - Agilent).
(1 picture or pasted object on this page, not shown here)

Where [2] appears, read: Homo sapiens, 740 nm (60 min, 12.60 J·cm^−2), total 48 h, read-out: IC50 Irrad. 740 nm.
Where [3] appears, read: Homo sapiens, dark, total 48 h incubation, read-out: IC50 Dark.
The mark [4] stands for this setting: dark, total 48 h incubation, read-out: IC50 Dark.

Regarding `C=CC1=C(C)c2cc3[nH]c(cc4nc(cc5[nH]c(cc1n2)c(C)c5CCC(=O)O)C(CCC(=O)O)=C4C)c(C)c3C=C` [PPIX, Protoporphyrin], the “PI (IC50 dark/IC50 irradiation 740 nm)” value with A2780 cells (A2780) is no less than 6; with RPE‐1 cells (RPE‐1) it was no less than 2. The IC50 in the series with A2780 cells (setting [2]) is 17.3 ± 0.01 µM; in the series on A2780 cells (setting [3]), greater than 100 µM; in the series on RPE‐1 cells (setting [2]) it was 41.6 ± 0.3 µM; with RPE‐1 cells (setting [3]) it was greater than 100 µM.

In the case of `[Ru+2].c1ccc(-c2ccccn2)nc1.c1ccc(-c2ccccn2)nc1.c1ccc(-c2ccccn2)nc1` [Ru(bpy)3, Tris(2,2'-bipyridyl) ruthenium (II)], in series [1], the Quantum yield was 0.077 and the “Singlet oxygen quantum yield” value was 0.77.

Turning to `N.N.[Cl][Pt][Cl]` [Cisplatin], the IC50 in the series on A2780 cells (setting [4]) is 1.92 ± 0.4 µM; in the series on A549 cells, 1.11 ± 0.33 µM; in the series on RPE‐1 cells (setting [4]) it was 15.2 ± 0.7 µM; in the series with MCA205 cells, 0.72 ± 0.2 µM; with A2780 MCTSs, 2 ± 0.4 µM.
